Results published in paper PMC6556873, “Rapid Covalent-Probe Discovery by Electrophile-Fragment Screening” (Journal of the American Chemical Society, 2019).
Read-outs that look alike come from different tables or passages of the source.

Legend:
in vitro [1] = test: in vitro; design: species or system CCD841, HEK293; conditions: human, hb2 cells, read-out: HB-2 Cells Viability (%)
in vitro [2] = test: in vitro; design: species or system HB2, HEK293; conditions: human, ccd841 cells
BSA = molecular target: T1, BSA (Bos taurus, UniProt P02769); design: Intact protein LC/MS covalent labelling, fragments in pools of five, 200 uM each, 4 °C; conditions: 24 h, 4 °C, pool of five; 200 µM; covalent
T1 construct: gene ALB
Description: (§1) Incubations were performed at 200 μM for each compound and 2 μM of protein (10 μM for BSA) for 24 h at 4 °C with moderate shaking. Incubation buffers varied among proteins (PBS pH 7.4 for QSOX1 and BSA; 10 mM HEPES pH 7.5, 0.3 M NaCl, 0.5 mM TCEP for PCAF, UPS8, and NUDT7; […]; 10 mM Na2HPO4 pH 7.5 100 mM NaCl 5 mM β-mercaptoethanol for NV3CP; 20 mM Na phosphate pH 7.5 for NNMT; […]. The reaction was stopped by quenching with formic acid, 0.4% final concentration. Each protein was incubated with the electrophilic library in pools of five compounds per well. The pool’s composition maximized the difference in mass between fragments in the same well. Incubations were performed with each fragment at 200 μM, for 24 h at 4 °C, to allow the screening of proteins that are not stable for long time periods at higher temperatures. Following incubation, we used intact protein [compound left out] chromatography/mass spectrometry (LC/MS) to identify the fragments and quantify their labeling (Figure 3A). […] There was good agreement between the percent of labeling of NUDT7 by 100 random individual compounds and that obtained in pools of five (R^2=0.78; Figure S6 and Data set 2 in the Supporting Information).

OTUB2 (OTUB2A) = molecular target: T2, OTUB2 (OTUB2A) (Homo sapiens, UniProt Q96DC9); design: Intact protein LC/MS covalent labelling, fragments in pools of five, 200 uM each, 4 °C; conditions: 24 h, 4 °C, pool of five; 200 µM; covalent
T2 construct: full length residues 1-234, E. coli BL21(DE3)-R3, His tag removed by TEV, construct 27312 Da
T2 sequence (Q96DC9 1-234): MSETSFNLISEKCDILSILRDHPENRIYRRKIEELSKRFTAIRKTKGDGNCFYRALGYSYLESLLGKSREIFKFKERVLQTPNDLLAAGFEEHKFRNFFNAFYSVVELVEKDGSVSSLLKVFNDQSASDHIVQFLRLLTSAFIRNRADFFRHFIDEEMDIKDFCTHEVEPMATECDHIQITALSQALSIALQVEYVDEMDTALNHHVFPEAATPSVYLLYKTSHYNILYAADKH
Description: as §1

PCAF = molecular target: T3, PCAF (Homo sapiens, UniProt Q92831); design: Intact protein LC/MS covalent labelling, fragments in pools of five, 200 uM each, 4 °C; conditions: 24 h, 4 °C, pool of five; 200 µM; covalent
T3 construct: gene KAT2B
Description: as §1

NUDT7 = molecular target: T4, NUDT7 (Homo sapiens, UniProt P0C024); design: Intact protein LC/MS covalent labelling, fragments in pools of five, 200 uM each, 4 °C; conditions: 24 h, 4 °C, pool of five; 200 µM; covalent
T4 construct: residues 14-235, E. coli, pNIC28-Bsa4, N-terminal His6 tag removed by TEV, construct 26672 Da
Description: as §1

in vitro [3] = test: in vitro; design: species or system HB2, CCD841; conditions: human, hek293 cells

T3 sequence (Q92831 whole entry, the tested form may be a part): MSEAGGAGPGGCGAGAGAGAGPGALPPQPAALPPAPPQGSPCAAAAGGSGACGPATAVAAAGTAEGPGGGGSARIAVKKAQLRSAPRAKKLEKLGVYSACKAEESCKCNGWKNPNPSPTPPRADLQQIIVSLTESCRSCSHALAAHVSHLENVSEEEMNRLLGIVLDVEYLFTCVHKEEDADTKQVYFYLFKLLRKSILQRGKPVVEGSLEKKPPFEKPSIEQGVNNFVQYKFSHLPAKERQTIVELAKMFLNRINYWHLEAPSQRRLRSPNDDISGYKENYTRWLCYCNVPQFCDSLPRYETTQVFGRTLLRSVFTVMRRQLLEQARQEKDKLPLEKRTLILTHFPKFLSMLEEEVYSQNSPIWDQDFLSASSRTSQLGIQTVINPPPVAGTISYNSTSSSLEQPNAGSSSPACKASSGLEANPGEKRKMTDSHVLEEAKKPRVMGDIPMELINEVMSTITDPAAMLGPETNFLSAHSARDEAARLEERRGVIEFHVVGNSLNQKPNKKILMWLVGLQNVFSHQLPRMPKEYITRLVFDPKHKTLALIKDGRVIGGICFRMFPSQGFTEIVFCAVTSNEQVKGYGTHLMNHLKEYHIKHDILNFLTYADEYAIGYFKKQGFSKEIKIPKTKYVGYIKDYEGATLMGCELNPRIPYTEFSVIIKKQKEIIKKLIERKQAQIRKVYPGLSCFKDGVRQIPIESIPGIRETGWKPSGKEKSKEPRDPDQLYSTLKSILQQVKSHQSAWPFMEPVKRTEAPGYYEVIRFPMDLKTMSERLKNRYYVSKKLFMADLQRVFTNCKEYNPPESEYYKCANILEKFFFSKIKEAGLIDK
T4 sequence (P0C024 14-235): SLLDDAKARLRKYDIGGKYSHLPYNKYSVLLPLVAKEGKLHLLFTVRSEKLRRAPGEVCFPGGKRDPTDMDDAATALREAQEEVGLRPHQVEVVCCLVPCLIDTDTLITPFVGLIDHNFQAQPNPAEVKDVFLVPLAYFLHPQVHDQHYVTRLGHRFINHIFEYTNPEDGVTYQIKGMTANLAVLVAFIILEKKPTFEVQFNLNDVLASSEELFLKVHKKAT
T1 sequence (P02769 whole entry, the tested form may be a part): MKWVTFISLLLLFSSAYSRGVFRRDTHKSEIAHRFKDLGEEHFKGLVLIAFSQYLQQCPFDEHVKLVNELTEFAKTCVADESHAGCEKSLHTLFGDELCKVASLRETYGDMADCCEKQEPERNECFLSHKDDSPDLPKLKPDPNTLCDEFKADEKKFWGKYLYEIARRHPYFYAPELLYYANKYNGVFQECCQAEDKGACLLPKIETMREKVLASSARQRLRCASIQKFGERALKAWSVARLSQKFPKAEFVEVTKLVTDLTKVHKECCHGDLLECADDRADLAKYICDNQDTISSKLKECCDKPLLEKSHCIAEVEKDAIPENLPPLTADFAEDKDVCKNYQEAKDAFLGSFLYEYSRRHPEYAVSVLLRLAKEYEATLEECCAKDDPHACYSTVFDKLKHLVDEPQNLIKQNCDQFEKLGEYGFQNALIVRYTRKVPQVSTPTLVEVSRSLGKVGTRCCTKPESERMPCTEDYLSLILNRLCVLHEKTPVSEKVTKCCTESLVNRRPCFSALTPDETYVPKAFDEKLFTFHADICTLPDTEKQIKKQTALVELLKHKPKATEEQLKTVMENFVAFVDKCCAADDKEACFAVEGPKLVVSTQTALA

Structure (SMILES) | viability at 48 h, 10 µM (in vitro [1]) | viability at 48 h, 10 µM (in vitro [2]) | BSA (BSA) | OTUB2 (OTUB2 (OTUB2A)) | PCAF (PCAF) | NUDT7 (NUDT7) | viability at 48 h, 10 µM (in vitro [3])
Cl.O=C(CCl)N1CCN(c2ccccn2)CC1 [PCM-0102213] | 84.5% | 94.7% | 0 | 0 | 0 | 0 | 81.6%
CC1CCN(C(=O)CCl)c2ccccc2S1 (stereo not shown) [PCM-0102216] | 77.3% | 52.4% | 0 | 0 | 0 | 0.32 | 42.4%
O=C(CCl)Nc1ccc(F)c(Cl)c1 [PCM-0102217] | 2.5% | 18.8% | 0.13 | 0.14 | 0 | 0 | 1.1%
O=C(CCl)Nc1cc(C(F)(F)F)ccc1-n1cncn1 [PCM-0102218] | 42.2% | 63.7% | 0 | 0 | 0 | 0.28 | 17.7%
O=C(Nc1ccccc1)C1CCN(C(=O)CCl)CC1 [PCM-0102219] | 5.6% | 34.2% | 0 | 0 | 0 | 0 | 5.6%
CS(=O)(=O)c1ccc(Cl)c(NC(=O)CCl)c1 [PCM-0102220] | 45.5% | 60.9% | 0 | 0 | 0 | 0.05 | 21.3%
CNC(=O)C1CN(C(=O)CCl)c2ccccc2O1 (stereo not shown) [PCM-0102221] | 82.1% | 58.1% | 0 | 0.15 | 0 | 0 | 53%
O=C(CCl)NC(=O)c1cccs1 [PCM-0102222] | 110% | 105% | 0.2 | 0 | 0 | 0 | 109%
N#CC(c1cccs1)N1CCN(C(=O)CCl)CC1 (stereo not shown) [PCM-0102223] | 74% | 75.5% | 0 | 0 | 0 | 0 | 64.6%
Cc1ccc(-n2nc(C)cc2NC(=O)CCl)cc1 [PCM-0102224] | 49.3% | 67.5% | 0 | 0.35 | 0 | 0 | 24.9%
Cc1n[nH]c(=O)c2c(NC(=O)CCl)oc(C)c12 [PCM-0102226] | 108% | 112% | 0 | 0 | 0 | 0 | 104%
O=C(CCl)Nc1ccc(Br)cn1 [PCM-0102227] | 84.3% | 75.7% | 0 | 0 | 0 | 0 | 72.4%
CC1(NC(=O)CCl)CCS(=O)(=O)C1 (stereo not shown) [PCM-0102230] | 105% | 92.7% | 0 | 0 | 0 | 0 | 92.6%
CCc1nc(NC(=O)CCl)sc1C [PCM-0102231] | 61.1% | 78.9% | 0 | 0 | 0 | 0.33 | 56.5%
O=C(CCl)Nc1ccccc1[N+](=O)[O-] [PCM-0102232] | 75.4% | 81.8% | 0 | 0.2 | 0 | 0.24 | 73.9%
O=C(CCl)Nc1nc(-c2c[nH]c3ccccc23)cs1 [PCM-0102233] | 4.8% | 65% | 0 | 0.25 | 0 | 0.26 | 6.5%
COc1ccccc1NC(=O)CCl [PCM-0102236] | 71% | 79% | 0 | 0.28 | 0 | 0 | 58.4%
O=C(CCl)N1CCN(S(=O)(=O)c2ccc(F)cc2)CC1 [PCM-0102237] | 78.8% | 77% | 0 | 0 | 0 | 0.06 | 66.9%
O=C(CCl)Nc1ccc(F)c([N+](=O)[O-])c1 [PCM-0102238] | 1% | 3.7% | 0 | 0.32 | 0 | 0.23 | 0.8%
Cl.O=C(CCl)N1CCN(c2cccc(C(F)(F)F)c2)CC1 [PCM-0102239] | 4.2% | 28.2% | 0.07 | 0 | 0 | 0.08 | 19.6%
O=C(CCl)NNC(=O)c1ccccc1 [PCM-0102240] | 98.1% | 85.6% | 0 | 0.2 | 0 | 0 | 92.4%
O=C(CCl)Nc1nccs1 [PCM-0102242] | 88.3% | 79.3% | 0.17 | 0 | 0 | 0 | 70.1%
